Data: ChEMBL document CHEMBL5465560, “Selectivity Literature for EUbOPEN Chemogenomic Library” (2024)
Numbering of substitutions follows the chain as printed. One block for each molecule: values may come before it.

Assays:
[1] = target: T1, Tyrosine-protein kinase Tec (Homo sapiens) (UniProt P42680); conditions: at 10 µM
T1 sequence (whole entry): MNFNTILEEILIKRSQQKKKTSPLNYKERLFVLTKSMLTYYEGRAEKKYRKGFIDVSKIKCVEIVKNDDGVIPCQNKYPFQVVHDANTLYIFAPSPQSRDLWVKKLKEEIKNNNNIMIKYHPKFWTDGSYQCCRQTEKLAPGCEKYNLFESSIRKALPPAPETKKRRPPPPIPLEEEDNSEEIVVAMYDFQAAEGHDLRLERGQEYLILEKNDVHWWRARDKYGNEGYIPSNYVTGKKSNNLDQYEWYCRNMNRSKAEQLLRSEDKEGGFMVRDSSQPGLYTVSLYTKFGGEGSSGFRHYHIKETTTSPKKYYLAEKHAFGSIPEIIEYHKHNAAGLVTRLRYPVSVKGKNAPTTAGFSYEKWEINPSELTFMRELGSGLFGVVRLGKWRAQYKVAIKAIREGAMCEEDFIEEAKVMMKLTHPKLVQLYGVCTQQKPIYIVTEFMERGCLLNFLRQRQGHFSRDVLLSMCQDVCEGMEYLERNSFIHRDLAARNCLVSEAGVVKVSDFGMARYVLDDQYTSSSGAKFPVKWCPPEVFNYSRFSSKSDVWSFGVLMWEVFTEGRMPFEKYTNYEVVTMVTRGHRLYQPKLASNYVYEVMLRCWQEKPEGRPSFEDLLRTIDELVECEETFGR

[2] = target: Dual specificity mitogen-activated protein kinase kinase 2 (Homo sapiens) (UniProt P36507); test: Selectivity interaction (ActivX KiNativ screen (kinase selectivity in THP-1 cell lysates)) EUB0000639a MAP2K2; type: subcellular; conditions: lysate, at 0.2 µM
[3] = tested on: T2, Discoidin domain-containing receptor 2 (Homo sapiens), Q16832 [T654M]; test: (§1) Selectivity interaction (ProQinase) EUB0000171b DDR2
T2 sequence (whole entry): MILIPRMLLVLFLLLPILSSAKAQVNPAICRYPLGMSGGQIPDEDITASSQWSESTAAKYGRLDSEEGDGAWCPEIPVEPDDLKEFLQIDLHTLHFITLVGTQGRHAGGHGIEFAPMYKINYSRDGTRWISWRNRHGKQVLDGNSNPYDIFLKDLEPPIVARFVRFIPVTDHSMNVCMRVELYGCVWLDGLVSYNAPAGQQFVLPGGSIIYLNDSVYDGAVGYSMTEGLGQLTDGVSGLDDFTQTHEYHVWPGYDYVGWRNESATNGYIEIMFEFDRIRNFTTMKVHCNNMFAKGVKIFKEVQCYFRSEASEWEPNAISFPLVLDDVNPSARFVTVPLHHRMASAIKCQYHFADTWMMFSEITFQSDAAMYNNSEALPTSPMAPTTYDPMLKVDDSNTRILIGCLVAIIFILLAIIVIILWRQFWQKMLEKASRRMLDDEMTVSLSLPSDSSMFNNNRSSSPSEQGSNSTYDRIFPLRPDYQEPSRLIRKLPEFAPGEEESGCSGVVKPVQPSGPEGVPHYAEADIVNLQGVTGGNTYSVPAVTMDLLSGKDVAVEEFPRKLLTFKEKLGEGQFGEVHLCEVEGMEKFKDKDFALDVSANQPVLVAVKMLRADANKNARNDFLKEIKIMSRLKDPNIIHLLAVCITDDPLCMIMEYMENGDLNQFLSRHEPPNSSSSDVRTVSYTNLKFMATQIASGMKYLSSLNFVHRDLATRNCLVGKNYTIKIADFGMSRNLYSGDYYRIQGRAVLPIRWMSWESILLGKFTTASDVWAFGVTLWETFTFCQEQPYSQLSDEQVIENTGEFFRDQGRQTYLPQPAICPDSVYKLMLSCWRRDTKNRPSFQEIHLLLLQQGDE

[4] = target: T3, Discoidin domain-containing receptor 2 (Homo sapiens) (UniProt Q16832); test: as §1
T3 sequence (whole entry): T2 sequence (whole entry) with M654T

[5] = target: Macrophage colony-stimulating factor 1 receptor (Homo sapiens) (UniProt P07333); test: Selectivity interaction (KinomeScan (DiscoverX)) EUB0001049a CSF1R; conditions: at 1 µM
[6] = target: Myosin light chain kinase 2, skeletal/cardiac muscle (Homo sapiens) (UniProt Q9H1R3); test: Selectivity interaction (KinomeScan (DiscoverX)) EUB0001049a MYLK2; conditions: at 1 µM
SRSF protein kinase 1 = SRSF protein kinase 1 (Homo sapiens, UniProt Q96SB4); test: Selectivity interaction (KinomeScan (DiscoverX)) EUB0000655a SRPK1; conditions: at 10 µM
[7] = target: Macrophage colony-stimulating factor 1 receptor (Homo sapiens) (UniProt P07333); test: Selectivity interaction (KinomeScan (DiscoverX)) EUB0000092b CSF1R; conditions: at 10 µM

Chain of Macrophage colony-stimulating factor 1 receptor (Homo sapiens) (P07333 whole entry): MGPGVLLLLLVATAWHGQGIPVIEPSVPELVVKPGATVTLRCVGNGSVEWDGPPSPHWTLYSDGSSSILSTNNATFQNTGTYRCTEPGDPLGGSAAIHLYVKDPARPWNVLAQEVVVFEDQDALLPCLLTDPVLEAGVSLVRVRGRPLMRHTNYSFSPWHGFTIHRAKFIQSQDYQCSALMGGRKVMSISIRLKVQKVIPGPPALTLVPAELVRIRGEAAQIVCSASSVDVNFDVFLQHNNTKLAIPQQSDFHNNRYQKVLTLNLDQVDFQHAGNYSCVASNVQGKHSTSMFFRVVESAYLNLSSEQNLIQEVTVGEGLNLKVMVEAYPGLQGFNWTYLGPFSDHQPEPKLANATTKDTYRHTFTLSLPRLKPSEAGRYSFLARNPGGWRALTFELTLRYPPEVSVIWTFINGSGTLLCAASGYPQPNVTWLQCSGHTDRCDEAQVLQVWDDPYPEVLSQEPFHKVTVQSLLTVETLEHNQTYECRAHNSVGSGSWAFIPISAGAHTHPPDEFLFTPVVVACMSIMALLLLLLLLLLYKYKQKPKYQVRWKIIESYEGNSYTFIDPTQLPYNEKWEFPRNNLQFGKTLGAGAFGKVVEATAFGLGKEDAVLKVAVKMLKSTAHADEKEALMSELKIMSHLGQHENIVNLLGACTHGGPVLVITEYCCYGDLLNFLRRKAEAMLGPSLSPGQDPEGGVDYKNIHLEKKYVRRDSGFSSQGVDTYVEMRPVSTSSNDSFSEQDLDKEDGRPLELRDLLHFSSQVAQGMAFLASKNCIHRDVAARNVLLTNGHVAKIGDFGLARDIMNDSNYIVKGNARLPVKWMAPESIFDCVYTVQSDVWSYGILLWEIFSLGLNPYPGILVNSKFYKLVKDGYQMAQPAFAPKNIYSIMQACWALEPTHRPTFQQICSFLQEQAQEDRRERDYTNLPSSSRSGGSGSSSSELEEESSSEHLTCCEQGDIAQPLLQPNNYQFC
Chain of SRSF protein kinase 1 (Q96SB4 whole entry): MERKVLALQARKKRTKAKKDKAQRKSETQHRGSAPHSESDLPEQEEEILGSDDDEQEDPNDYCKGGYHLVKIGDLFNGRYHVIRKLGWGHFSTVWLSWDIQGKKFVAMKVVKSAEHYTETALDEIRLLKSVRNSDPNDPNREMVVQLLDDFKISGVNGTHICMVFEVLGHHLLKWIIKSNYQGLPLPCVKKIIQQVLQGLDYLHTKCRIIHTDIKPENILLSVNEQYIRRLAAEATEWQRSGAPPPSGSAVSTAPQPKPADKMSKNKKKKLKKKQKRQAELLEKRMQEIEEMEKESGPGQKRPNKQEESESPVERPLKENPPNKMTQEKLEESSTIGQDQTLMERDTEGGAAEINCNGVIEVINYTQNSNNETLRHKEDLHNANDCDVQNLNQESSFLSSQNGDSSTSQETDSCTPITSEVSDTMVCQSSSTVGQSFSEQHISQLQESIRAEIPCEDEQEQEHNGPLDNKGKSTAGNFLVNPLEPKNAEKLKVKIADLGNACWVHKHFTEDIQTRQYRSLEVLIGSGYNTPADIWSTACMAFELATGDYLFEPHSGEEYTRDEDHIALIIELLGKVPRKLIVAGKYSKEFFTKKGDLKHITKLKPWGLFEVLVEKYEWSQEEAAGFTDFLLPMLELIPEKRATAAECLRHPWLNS
Chain of Dual specificity mitogen-activated protein kinase kinase 2 (Homo sapiens) (P36507 whole entry, the tested form may be a part): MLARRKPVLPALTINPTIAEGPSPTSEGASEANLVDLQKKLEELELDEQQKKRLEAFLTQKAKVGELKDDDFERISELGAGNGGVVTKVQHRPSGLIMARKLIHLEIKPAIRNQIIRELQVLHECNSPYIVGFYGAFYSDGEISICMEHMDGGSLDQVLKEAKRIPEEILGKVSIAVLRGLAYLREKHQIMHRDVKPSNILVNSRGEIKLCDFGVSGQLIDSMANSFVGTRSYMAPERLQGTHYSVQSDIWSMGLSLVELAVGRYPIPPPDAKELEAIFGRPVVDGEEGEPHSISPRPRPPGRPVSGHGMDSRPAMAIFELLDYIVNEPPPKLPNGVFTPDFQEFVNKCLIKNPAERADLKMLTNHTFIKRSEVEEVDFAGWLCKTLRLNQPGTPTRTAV
Chain of Myosin light chain kinase 2, skeletal/cardiac muscle (Homo sapiens) (Q9H1R3 whole entry): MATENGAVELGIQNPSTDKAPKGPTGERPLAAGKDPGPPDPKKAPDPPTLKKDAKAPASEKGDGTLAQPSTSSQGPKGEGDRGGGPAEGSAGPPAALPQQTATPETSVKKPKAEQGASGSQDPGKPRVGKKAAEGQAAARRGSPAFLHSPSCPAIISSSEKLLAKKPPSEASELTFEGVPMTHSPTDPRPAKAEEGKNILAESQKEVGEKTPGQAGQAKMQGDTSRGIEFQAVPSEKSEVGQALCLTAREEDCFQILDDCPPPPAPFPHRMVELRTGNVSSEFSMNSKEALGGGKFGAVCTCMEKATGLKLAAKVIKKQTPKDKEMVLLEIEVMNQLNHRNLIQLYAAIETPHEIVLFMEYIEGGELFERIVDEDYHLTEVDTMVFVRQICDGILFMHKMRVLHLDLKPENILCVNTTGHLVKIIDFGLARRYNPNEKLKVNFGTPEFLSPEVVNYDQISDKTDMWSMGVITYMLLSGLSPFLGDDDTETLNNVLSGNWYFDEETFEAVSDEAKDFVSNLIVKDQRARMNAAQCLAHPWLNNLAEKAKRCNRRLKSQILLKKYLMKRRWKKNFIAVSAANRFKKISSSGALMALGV

% of control [1]: 100%
SMILES: CCN(CC)CCCCNc1ncc2cc(-c3cc(OC)cc(OC)c3)c(NC(=O)NC(C)(C)C)nc2n1

% of inhibition [2]: 11.6%
SMILES: CC[C@@H]1[C@H](F)C(=O)N[C@@H]1COc1nccc2cc(C(N)=O)c(OC)cc12 [ZIMLOVISERTIB]

% of control ([3]; at 1 µM): 89%
% of control ([3]; at 5 µM): 70%
% of control ([4]; at 1 µM): 90%
% of control ([4]; at 5 µM): 76%
SMILES: C=CC(=O)Nc1cccc(C(=O)Nc2ccc(Nc3cc(-c4[nH]c(SC)nc4C)ccn3)cc2)c1

Second part, the molecule before the results:

SMILES: COc1cc(Nc2nc(C)cc(-c3cnn4nc(OC)ccc34)n2)cc(C(F)(F)F)c1
% of control [5]: 100%
% of control [6]: 100%

SMILES: CN(C)CCOc1ccc(-c2nc(-c3ccncc3)c(-c3ccc4c(c3)CC/C4=N\O)[nH]2)cc1
% of control (SRSF protein kinase 1): 86%

SMILES: CCC(=O)N1CCN(c2ccc(-n3c(=O)ccc4cnc5ccc(-c6cnc7ccccc7c6)cc5c43)cc2C(F)(F)F)CC1
% of control [7]: 24%
